Laboratory results: patent US9808470B2, “Estrogenic components for use in the treatment of neurological disorders” (UNIVERSITE DE LIEGE, priority 2012, dated 2017)
Where “and” joins values, the source holds several entries; their conditions need not be identical. Identical values can stand only once.

How the values were obtained:
[1] = Ex.3 neuroprotective HIE rat model: rectal temperature; type: in vivo; conditions: E4 1, 5, 10, 50 mg/kg/day ip PND4-7 before HI; 0, 2, 4 h after hypoxia
Experimental: The rectal temperature of the rat pups was measured with a multipurpose thermometer (BAT-10R, Physitemp Instruments Inc., Clifton, N.J., US) along with a rectal probe (RET-4, BioMedical Instruments, Zollnitz, Germany) at 0, 2, and 4 hours after exposure to hypoxic insult. To keep the variability of the temperature low, measurements of rectal temperature were made in a 25° C. room 15 min after removal of the pups from the nest (except the 1st post-hypoxic measurement which was done immediately). It has been shown that the rectal temperature corresponds very well to the brain core temperature (Thoresen et al. 1996. Arch Dis Child Fetal Neonatal 74: F3-F9, Yager et al. 1993. Pediatr Res 34: 525-529).
Newborn rat pups were assigned to one of the following 6 groups from postnatal day 4: Sham group (n=24), Vehicle group (n=14), E4 1 mg/kg/per day group (n=11), E4 5 mg/kg/per day group (n=14), E4 10 mg/kg/per day group (n=14), or E4 50 mg/kg/per day group (n=19). From postnatal day 4, rat pups were intraperitoneally injected either vehicle (Vehicle group) or E4 (1, 5, 10, or 50 mg/kg/per day in accordance to the E4 group assignment) or neither vehicle nor E4 (Sham group). […]

[2] = octanol-water; depending on experimental settings; listed as estetrol; cited from earlier work
[3] = Ex.8 therapeutic HIE rat model: brain weight and brain-body weight ratio; type: in vivo; conditions: 10 mg/kg/day E4, PND14, vs vehicle
Experimental: All the compounds used for in vivo studies were dissolved in absolute Ethanol (ETOH) and further diluted in saline solution at a final concentration of ETOH 10%. An equal volume (5 μ1/g) of the solution was injected intraperitoneally (ip) into the pups from study groups. Rat pups from the vehicle group were ip injected a saline solution containing 10% ETOH. Rat pups from the Sham group were not injected at all.
To study the therapeutic effect of estetrol, newborn rat pups were assigned to one of the following 14 groups at postnatal day 7 (FIG. 23(B)): Sham group (n=12), Vehicle (n=15), 5 mg/kg/day E4 (n=11), 10 mg/kg/day E4 (n=11), 5 mg/kg/day E4+1.6 mg/kg/day PROG (n=11), 10 mg/kg/day E4+1.6 mg/kg/day PROG (n=11), 5 mg/kg/day E4+16 mg/kg/day PROG (n=11), 10 mg/kg/day E4+16 mg/kg/day PROG (n=13), 5 mg/kg/day E4+136 ng//kg/day E2 (n=11), 10 mg/kg/day E4+136 ng/kg/day E2 (n=11), 5 mg/kg/day E4+1.6 mg/kg/day PROG+136 ng/kg/day E2 (n=12), 10 mg/kg/day E4+1.6 mg/kg/day PROG+136 ng/kg/day E2 (n=11), 5 mg/kg/day E4+16 mg/kg/day PROG+136 ng/kg/day E2 (n=11), 10 mg/kg/day E4+16 mg/kg/day PROG+136 ng/kg/day (n=12) groups. […] After surgery, the pups were returned to their dams and allowed to recover for 1 hour. The pups were then placed in a humidified hypoxic in vivo cabinet (CoyLab). […]

rectal temperature [1]: did not affect the body temperature
SMILES: C[C@]12CC[C@@H]3c4ccc(O)cc4CC[C@H]3[C@@H]1[C@@H](O)[C@@H](O)[C@@H]2O [E4, 1,3,5(10)-estratrien-3,15α,16α,17β-tetrol]
Pow Log [2]: 1.47 and 1.695 | brain weight [3]: significantly higher brain weight than the vehicle alone
